Source: patent US5922756A, “Method of inhibiting nitric oxide synthase” (priority 1998, dated 1999)
Where two headings read alike, the source gives them in different places.

Tests used:
[1] = biological target: T1, Murine iNOS (Mus musculus, UniProt P29477); experiment: Citrulline assay for iNOS enzyme activity ([3H]arginine to [3H]citrulline); format: biochemical; conditions: for remaining activity at 800 µM: read-out: citrulline formation (% of control)
T1 construct: purchased Cayman
Experimental: Murine iNOS was extracted from the RAW 264.7 murine macrophages (from the American Type Culture Collection). The cells were stimulated with 20 units/mL cf IFNγ and 0.5 μg/mL LPS, incubated for 4 hr, and then harvested. The washed cells were lysed in 50 mM MOPS buffer (pH 7.0) which contained 1 mM EGTA, 100 mM NaCl, 0.1% 3-[(3-cholamidopropl)dimethylammonio]-2-hydroxy-1-propanesulfonate (CHAPSO), 0.2 mM phenylmethylsulfonyl fluoride, […], and 1 mM leupeptin. After passing through Sephadex G-100 (Pharmacia) to remove arginine, NADPH, and unbound tetrahydrobiopterin, the supernatant was concentrated by ultrafiltration using Centricon 30 microconcentrators (Amicon) (Forstermann et al. 1994; Wolff and Gribin 1994). Murine iNOS, 100,000 g fraction, was also purchased from Cayman.
(§1) Enzyme inhibition studies for iNOS were conducted in 50 mM HEPES buffer (pH 7.4) containing 1 mM calcium chloride, 1 mM magnesium acetate and […]. [^3 H]arginine (New England Nuclear), tetrahydrobiopterin (Biomol), and EGCG were added at the indicated concentrations. Reactions were terminated by the addition of AG 50WX8 resin (Bio-Rad) in HEPES-EDTA buffer (pH 5.5). Enzyme activity was measured by monitoring the conversion of [^3 H]arginine to [^3 H]citrulline (Hevel and Marletta 1994). Reactions were allowed to occur at 37° C. for 10-20 min since time-course analyses had shown that the reaction was linear under these conditions. Background was determined by the level of radioactivity in a reaction mixture from which iNOS was omitted. This amount was subtracted from the level detected in the experimental samples. Enzyme activity, i.e. the amount of citrulline formed, was deduced from the specific activity of the [^3 H]arginine.
Purification of tea catechin polyphenols was performed according to Xie et al. (1993). Enzyme preparation and assay were followed as described in the Methods section of Example 2.

[2] = tested on: iNOS mRNA expression; experiment: iNOS gene expression by relative RT-PCR in LPS- and IFNγ-activated mouse peritoneal cells; format: cell-based; conditions: 4 hr after LPS + IFNγ stimulation, read-out: iNOS mRNA expression reduced to (% of control, iNOS/GAPDH ratio)
Experimental: (§2) Non-elicited peritoneal exudate cells were obtained from BALB/c mice (Jackson Laboratories) and were cultured at 10^6 /mL as described by Chan et al. (1995). They were stimulated by the addition of 0.01 μg/mL LPS from Salmonella typhosa (Difco Laboratories) and 10 units/mL of IFNγ. At 4 hr after stimulation, total RNA was isolated with a Purescript RNA isolation kit (Gentra). RT-PCR was performed to determine the level of iNOS gene expression. From each sample, 300 ng of RNA was reverse-transcribed using 100 units MMLV reverse transcriptase, 20 units RNase inhibitor, 0.6 mM dNTP, and 0.4 mM Oligo(dT16) (Promega). Then PCR analyses were performed on the aliquots of the cDNA preparations for detecting iNOS and glyceraldehyse 3-phosphate dehydrogenase (GAPDH) gene expression. The reactions occurred in a 50 μL volume, for 23 cycles, with 10 mM Tris-HCl, pH 8.3, 50 mM KCl, 1.5 mM MgCl2, 0.3 mM dNTP, 2.0 units of Taq DNA polymerase, and 50 pmol of 5' and 3' primers. Murine iNOS and GAPDH 5' and 3' primers were purchased from Clontech and used according to manufactures protocols. The products were then separated on 1.6% agarose gel, stained with ethidium bromide, and the intensity of the bands was determined by scanning (Siebert and Kellogg 1995).

[3] = tested on: GAPDH mRNA expression; experiment: GAPDH (housekeeping gene) mRNA expression by RT-PCR in activated mouse peritoneal cells; format: cell-based; conditions: EGCG 1-10 μM, housekeeping gene control
Experimental: as §2

[4] = biological target: T2, neuronal nitric oxide synthase (nNOS) (Mus musculus, UniProt Q9Z0J4); experiment: Citrulline assay for neuronal NOS enzyme activity (mouse brain 100,000 g fraction); format: biochemical; conditions: 0.135 μM arginine, 125 μM tetrahydrobiopterin, read-out: nNOS citrulline formation inhibited by (% compared with control)
T2 construct: fresh brains from BALB/c mice were homogenized; from tissue; host or cells: brain of BALB/c mice, 100,000 g fraction passed through Sephadex G-100
Experimental: as §1
Purification of EGCG was performed according to Xie et al. (1993). Neuronal NOS sample preparation and enzyme activity assay were described in the Methods section of Example 2, with the following modifications. For nNOS, fresh brains from BALB/c mice were homogenized in a 5-fold volume of 50 mM Tris-HCl (pH 7.5) that contained 1 mM EDTA, 5 mM 2-mercaptoethanol and then were centrifuged at 100,000 g for 1 hr, and then the sample was passed through the Sephadex G-100 column. For the nNOS enzyme assay, 5 μM flavin mononucleotide, 5 μM flavin adenine dinucleotide, 10 μg/mL calmodulin (Calbiochem) and 1.25 mM DTT were incorporated in the reaction mixture.

[5] = tested on: NO production; conditions: LPS- and IFNγ-induced mouse peritoneal cells; Chan et al. 1995; cited from earlier work
[6] = 800 μM compound, 0.270 μM arginine, 125 μM tetrahydrobiopterin, 126 pmol/min iNOS
[7] = read-out: citrulline formation inhibited to (% of control)

Compound | remaining activity at 800 µM [1, 6] [%] | mrna remaining at 1 µM ([2]; 1 μM EGCG) [%] | mrna remaining at 3 µM ([2]; 3 μM EGCG) [%] | mrna remaining at 5 µM ([2]; 5 μM EGCG) [%] | mrna remaining at 10 µM ([2]; 10 μM EGCG) [%] | reduction in mRNA expression of GAPDH [3] | EC50 [1] [µM] | Ki [1] [µM] | pattern of inhibition with respect to substrate arginine (Dixon plot) ([1]; 100-600 μM EGCG, 0.068-0.270 μM arginine) | pattern of inhibition with respect to cofactor tetrahydrobiopterin (Dixon plot) ([1]; 100-600 μM EGCG, 12-125 μM tetrahydrobiopterin) | remaining activity at 800 µM [1] [%] | inhibition at 50 µM [1, 7] [%] | inhibition at 250 µM [1, 7] [%] | inhibition at 500 µM [1, 7] [%] | inhibition at 750 µM [1, 7] [%] | inhibition at 200 µM ([4]; 200 μM EGCG) [%] | inhibition at 400 µM ([4]; 400 μM EGCG) [%] | inhibition at 600 µM ([4]; 600 μM EGCG) [%] | NO production measured by nitrite accumulation in the culture medium [5]
O=C(O[C@@H]1Cc2c(O)cc(O)cc2O[C@@H]1c1ccc(O)c(O)c1)c1cc(O)c(O)c(O)c1 [ECG, epicatechin-gallate] | 68 | – | – | – | – | – | – | – | – | – | – | – | – | – | – | – | – | – | –
Oc1cc(O)c2c(c1)O[C@H](c1cc(O)c(O)c(O)c1)[C@H](O)C2 [EGC, epigallocatechin] | 96 | – | – | – | – | – | – | – | – | – | – | – | – | – | – | – | – | – | –
O=C(O[C@@H]1Cc2c(O)cc(O)cc2O[C@@H]1c1cc(O)c(O)c(O)c1)c1cc(O)c(O)c(O)c1 [EGCG, Epigallocatechin-3-gallate] | – | 82 | 74 | 41 | 14 | not observed | 150 | 130 | competitive pattern of inhibition | competitive manner | 62 | 85 | 40 | 27 | 14 | 79 | 51 | 56 | reduces NO production
